Like-named read-outs stand apart in the source and are kept apart here.
Legend:
[1] = Test 4: toxicity on adult F1 mice, IP; conditions: in vivo
Excerpt: Test 4: Investigation of the toxicity
The toxic dose has been sought, on adult ([…]×DBA/2) Fl mice and on new-born mice, of the compounds of the invention by injection by the IP route. The results obtained are given hereinafter:
1- On adult F1 mice (C 57 BL 6×DBA/2)F1 (IP route)

[2] = tested on: Moloney virus / viro-induced Moloney sarcoma; test: Test 3: development of the viro-induced Moloney sarcoma; format: in vivo, new-born mice; conditions: 1 μg/mouse (0.5 mg/kg)
Excerpt: The study of the development of the MOLONEY viro-induced sarcoma (Nat. Cancer. Inst. Monograph 22, 139-142, 1966) has also made it possible to determine that the compounds according to the invention are antiviral and antitumoral agents in lower animals.
Test 3: Study of the development of the viro-induced Moloney sarcoma
The injection of Moloney virus [C. Jasmin et al. J. Nat. Cander Inst. 1974 53 469-474] by the intramuscular i.m. route into new-born mice led after 10 days to the formation of a sarcoma. The appearance of the tumour was proportional to the dose of virus injected. The viral inoculum was constituted by a tumor homogenate diluted to 1/250, this corresponding to 10 TID 50, i.e. to the dose of virus inducing the appearance of a tumour in 50% of the animals infected. At this dose, 80 to 100% of the animals developed a tumour, and 100% of the survivors became leukemic. The experiment thus consisted in noting the number of mice presenting tumours, the regression, or not, of these tumours and finally in sacrificing the surviving animals after 2 months and in noting the presence or absence of splenomegaly (evidence of a leukemia). The virus was inoculated into new-born mice of 3 to 5 days by the IM route, and the mice received the following day (J+1) or five hours after injection (JO+5 hours) the product to be tested by the IP route.

[3] = tested on: DNA synthesis in HS5 cells; test: Test 6: action on DNA synthesis (14C methyl-thymidine incorporation); format: cell-based, hamster; conditions: in the hours following its addition
Method: Test 6: Action on the macromolecular syntheses
The action of the compounds according to the invention was studied by the incorporation of precursors marked by radioactive isotopes:
^14 C methyl-thymidine for studying the DNA synthesis
These precursors were given for a period of 30 minutes at varying times after the addition of the product to be tested.
The incorporation is measured after lysis of the cells for 1% of sodium dodecylsulfate and precipitation by 5% of trichloroacetic acid. The […] precipitate was collected on glass fibre Whatman GF/A filters. The filters were dried and counted in a liquid scintillation spectrometer.

L1210 leukemia [4] = test: Test 17: length of substituting chain, L1210 (Table XIII); format: in vivo, mouse
Method: Test 17: Relationship between the length of the substituting chain and the activity.
However compound 21 is less toxic (50 mg/kg for compound 21 and 25 mg/kg for compound 23), it has a higher ILS% than compound 23 and 1 mouse survived up to 60 days.

L1210 leukemia [5] = test: Test 18: dose-L1210 antitumoral activity of compound 21; format: in vivo, mouse
Excerpt: Test 18: Relationship between dose and L1210 antitumoral activity of compound 21 […]

L 1210 leukemia = test: Test 10: comparison of antitumoral activity with known products, L 1210 (Tables V-VII); format: in vivo, mouse
Method: Test 10: Comparison of the antitumoral activity of the compound according to example 7 with that of known products
The compound of example 7, i.e. 1-(γ-diethylaminopropyl)amino-5-methyl-dipyrido-[4,3-b][3,4-f] indole or known compounds were injected into L 1210 leukemic mice 1 or 3 days after the inoculation of the cells at the doses indicated in tables V to VII and the mean survival time (MST) and the precentage of increased life span (ILS %) were measured.
Indications concerned the known products used in this example and particularly their antitumoral properties, their secondary effects and their use in man may be found in "La Chimiotherapie des Cancers", by G. MATHE and M. KENIS Expansion Scientifique Francaise, 3rd edition, Paris 1975.

leukemic cells = test: Test 20: combination of compound 21 with other drugs (Table XV); conditions: 10^5 cells, BD 40 20 mg/kg day +4, Endoxan 100 mg/kg day +3
Method: A priming dose of endoxan (100 mg/kg) was given 3 days after 10^5 leukemic cells (20 mice).

Lewis carcinoma (3LL) = test: Test 13: Lewis carcinoma, antimetastasic effect; format: in vivo, BDF1 mice; conditions: for MST: controls 25
Method: "carcinome pulmonaire de Lewis" (3LL), K. SUGIURA and C. C. STOCK," Cancer Res. 1955 15 38-51.
In this test, cells (10^6 cells) removed from a tumour-carrying mouse were injected into mice(BDF1) by the IM route. The mice developed, 10 to 15 days after the inoculation, a tumour at the spot where the injection was made. On the other hand, these cells made metastasis in the lung, forming colonies on the pulmonary surface. The antitumoral and antimetastasic effect of a product may therefore be judged on mice thus treated.
Investigation of the antimetastasic effect of the compounds of examples 7 and 8 of the invention
10^6 cells taken from a tumour-carrying mouse were injected by the IM route (left-band paw) into groups of 10 mice and the compounds to be tested were inoculated by the IP route on day J+5 by single or fractioned injection. The mean survival time (MST) and the increased life span (ILS %) were determined.

[6] = Table V, 10^4 cells, J+1, 0.2 mg/mouse
[7] = Table V, 10^4 cells, J+3, doses mg/mouse: example 7 0.2, Thiotepa 0.1, Mitomycine 0.016, BCNU 0.1, Methotrexate 0.250
[8] = Table VI, 10^5 cells, J+1, 0.2 mg/mouse
[9] = Table VI, 10^5 cells, J+3, mg/mouse: Thiotepa 0.1, Mitomycine C 0.016, BCNU 0.1, Methotrexate 0.250, example 7 0.2, Endoxan 4
[10] = Table VII, 10^5 cells, J+3, example 7 0.2 mg/mouse, ON COVIN 0.5 μg/mouse
[11] = 4 injections J+5+6+10+11, 2.5 mg/kg each

SMILES: Cc1c2ccncc2c(C)c2c1[nH]c1ccncc12 [Example 1, 5,11-dimethyl dipyrido [4,3-b][3,4-f] indole]
- mortality ([1]; mouse, ip, 20 mg/kg): 16.7%
- mortality ([1]; mouse, ip, 40 mg/kg): 12.5%
- mortality ([1]; mouse, ip, 80 mg/kg): 83.3%
- animals presenting a tumour ([2]; JO+5 hours): 50%
- animals survived ([2]; JO+5 hours): 75%
- mice with leukemia ([2]; JO+5 hours): 65%
- tumours regressed ([2]; JO+5 hours): 30%
- DNA and RNA syntheses [3]: reduces very rapidly

SMILES: CCN(CC)CCCNc1nccc2c(C)c3[nH]c4ccncc4c3cc12 [Example 7, 1-(γ-diethylaminopropyl)amino-5-methyl-dipyrido-[4,3-b][3,4-f] indole]
- activity against L1210 leukemia (in words) (L1210 leukemia [4]; Table XIII summary): the compound the most active on the mice
- ILS % (L1210 leukemia [4]; day +1): 69.2%
- Survivors up to 60 days (L1210 leukemia [4]; day +1): 1
- MST (L1210 leukemia [4]; day +1, control MST 8.8): 14.9
- Range of death (L1210 leukemia [4]; day +1, control MST 8.8): 12-18
- ILS % (L1210 leukemia [4]; day +4): 65.6%
- Survivors up to 60 days (L1210 leukemia [4]; day +4): 0
- MST (L1210 leukemia [4]; day +4, control MST 11.2): 18.5
- Range of death (L1210 leukemia [4]; day +4, control MST 11.2): 14-32
- mortality ([1]; 0.3 mg/mouse (15 mg/kg), IP, read-out: dead mice (converted)): 0%
- mortality ([1]; 0.5 mg/mouse (25 mg/kg), IP, read-out: dead mice (converted)): 0%
- mortality ([1]; 0.6 mg/mouse (30 mg/kg), IP, read-out: dead mice (converted)): 50%
- mortality ([1]; 1 mg/mouse (50 mg/kg), IP, read-out: dead mice (converted)): 33.3%
- LD50 ([1]; mouse, adult F1 mice, IP): 30 mg/kg
- animals survived ([2]; J+1): 90%
- mice presenting tumours ([2]; J+1): 70%
- mice with leukemia ([2]; J+1): 0%
- tumours regressed ([2]; J+1): 90%
- animals presenting a tumour ([2]; JO+5 hours): 5%
- animals survived ([2]; JO+5 hours): 100%
- mice with leukemia ([2]; JO+5 hours): 40%
- tumours regressed ([2]; JO+5 hours): 100%
- ILS (L1210 leukemia [5]; 5 mg/kg): 87%
- ILS (L1210 leukemia [5]; 10 mg): 52%
- inoculated mice surviving up to 60 days (L1210 leukemia [5]; 20 mg per kg): 20%
- ILS (L1210 leukemia [5]; 20 mg/kg): 75%
- inoculated mice surviving up to 60 days (L1210 leukemia [5]; 100mg (so in the source)): 10%
- Range of death (first death) (L 1210 leukemia; [6]): 6 days
- mice alive on 30th day (L 1210 leukemia; [6]): 1
- ILS % (L 1210 leukemia; [7]): 25.45%
- MTS (mean survival time) (L 1210 leukemia; [7]): 13.8
- Range of death (L 1210 leukemia; Table V, 10^4 cells, J+3, mg/mouse: example 7 0.2, Thiotepa 0.1, Mitomycine 0.016, BCNU 0.1, Methotrexate 0.250, Endoxan 4): 11 to 17 days
- ILS % (L 1210 leukemia; [8]): 39.07%
- MTS (mean survival time) (L 1210 leukemia; [8]): 12.6
- Range of death (L 1210 leukemia; [8]): 9-16
- ILS % (L 1210 leukemia; [9]): 35.43%
- MTS (mean survival time) (L 1210 leukemia; [9]): 12.27
- Range of death (L 1210 leukemia; [9]): 10-15
- ILS % (L 1210 leukemia; [10]): 36.35%
- MTS (mean survival time) (L 1210 leukemia; [10]): 14.18
- Range of death (L 1210 leukemia; [10]): 13-16
- ILS % (leukemic cells; BCNU 2 mg/kg): 65.2%
- Range of death (leukemic cells; BCNU 2 mg/kg immediately after endoxan): 14-32
- MST (leukemic cells; BCNU 2 mg/kg, control 11.2): 18.5
- ILS % (Lewis carcinoma (3LL); 1 injection J+5, 10 mg/kg): 30.8%
- MST (Lewis carcinoma (3LL); 1 injection J+5, 10 mg/kg): 32.7
- ILS % (Lewis carcinoma (3LL); [11]): 9.6%
- MST (Lewis carcinoma (3LL); [11]): 27.4
- protective action concerning metastasic pulmonary invasion of the lung (Lewis carcinoma (3LL); IP from J+5): give a protective action
- pulmonary metastases counted (Lewis carcinoma (3LL); one mouse sacrificed day J+22, one injection J+5, non-treated mouse 77): 35

Reference: patent publication US4444776A, “Dipyrido (4,3-B) (3,4-F) indoles, process for obtaining them, therapeutical use and pharmaceutical compositions” (priority 1977, dated 1984)
